Laboratory results: ChEMBL document CHEMBL4419168, “Substituted n-([1,1''-biphenyl]-3-yl)-[1,1''-biphenyl]-3-carboxamide analogs as inhibitors for beta-catenin/b-cell lymphoma 9 interactions” (2018)
pIC50, pKi: −log10 of the molar value.

Legend:
SW480 [1] = assay: Cytotoxicity in human SW480 cells assessed as reduction in cell viability incubated for 72 hrs by MTS assay; type: functional, cell-based; details: for pIC50: SW480, 72 h
HCT-116 = assay: Cytotoxicity in human HCT116 cells assessed as reduction in cell viability incubated for 72 hrs by MTS assay; type: functional, cell-based; details: for pIC50: HCT-116, 72 h
HT-29 = assay: Cytotoxicity in human HT-29 cells assessed as reduction in cell viability incubated for 72 hrs by MTS assay; type: functional, cell-based; details: for pIC50: HT-29, 72 h
Homo sapiens = species on record: Homo sapiens; assay: Selectivity index, ratio of Ki for inhibition of C-terminal 6x-histidine tagged beta-catenin (138 to 686 residues) (unknown origin) expressed in Escherichia coli BL21 DE3/N-terminally biotinylated human E-cadherin (824 to 877 residues) protein-protein interactions by Alpha-screen assay to Ki for …
MDA-MB-231 = assay: Cytotoxicity in human MDA-MB-231 cells assessed as reduction in cell viability incubated for 72 hrs by MTS assay; type: functional, cell-based; details: for pIC50: MDA-MB-231, 72 h
[2] = biological target: T1, beta-catenin-B-cell lymphoma 9 protein complex (Homo sapiens, UniProt P35222); assay: Inhibition of C-terminal 6x-histidine tagged beta-catenin (138 to 686 residues) (unknown origin) expressed in Escherichia coli BL21 DE3 /human BCL9 (350 to 375 residues) protein-protein interactions incubated for 1 hr by Alpha-screen assay
T1 sequence (P35222 whole entry): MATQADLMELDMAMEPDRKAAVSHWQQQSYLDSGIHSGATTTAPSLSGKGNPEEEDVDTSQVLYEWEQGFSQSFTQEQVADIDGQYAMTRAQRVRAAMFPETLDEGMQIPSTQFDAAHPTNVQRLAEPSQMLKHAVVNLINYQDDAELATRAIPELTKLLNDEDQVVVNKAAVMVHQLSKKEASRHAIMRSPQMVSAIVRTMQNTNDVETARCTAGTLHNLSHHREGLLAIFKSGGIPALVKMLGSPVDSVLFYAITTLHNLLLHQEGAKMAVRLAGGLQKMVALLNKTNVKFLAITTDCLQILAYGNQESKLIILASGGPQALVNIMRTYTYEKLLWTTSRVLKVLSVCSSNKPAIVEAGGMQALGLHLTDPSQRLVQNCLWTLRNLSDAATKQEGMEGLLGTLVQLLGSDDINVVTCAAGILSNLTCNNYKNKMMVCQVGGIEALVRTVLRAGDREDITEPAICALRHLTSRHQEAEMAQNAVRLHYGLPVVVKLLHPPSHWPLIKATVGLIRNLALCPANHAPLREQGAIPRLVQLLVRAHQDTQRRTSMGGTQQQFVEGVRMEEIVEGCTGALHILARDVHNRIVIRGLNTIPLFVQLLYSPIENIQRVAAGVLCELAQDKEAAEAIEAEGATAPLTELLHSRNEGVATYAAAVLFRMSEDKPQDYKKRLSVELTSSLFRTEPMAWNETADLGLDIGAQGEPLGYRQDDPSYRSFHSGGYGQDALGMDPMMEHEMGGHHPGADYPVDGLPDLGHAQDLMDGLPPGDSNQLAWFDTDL
T1 sequence (O00512 whole entry): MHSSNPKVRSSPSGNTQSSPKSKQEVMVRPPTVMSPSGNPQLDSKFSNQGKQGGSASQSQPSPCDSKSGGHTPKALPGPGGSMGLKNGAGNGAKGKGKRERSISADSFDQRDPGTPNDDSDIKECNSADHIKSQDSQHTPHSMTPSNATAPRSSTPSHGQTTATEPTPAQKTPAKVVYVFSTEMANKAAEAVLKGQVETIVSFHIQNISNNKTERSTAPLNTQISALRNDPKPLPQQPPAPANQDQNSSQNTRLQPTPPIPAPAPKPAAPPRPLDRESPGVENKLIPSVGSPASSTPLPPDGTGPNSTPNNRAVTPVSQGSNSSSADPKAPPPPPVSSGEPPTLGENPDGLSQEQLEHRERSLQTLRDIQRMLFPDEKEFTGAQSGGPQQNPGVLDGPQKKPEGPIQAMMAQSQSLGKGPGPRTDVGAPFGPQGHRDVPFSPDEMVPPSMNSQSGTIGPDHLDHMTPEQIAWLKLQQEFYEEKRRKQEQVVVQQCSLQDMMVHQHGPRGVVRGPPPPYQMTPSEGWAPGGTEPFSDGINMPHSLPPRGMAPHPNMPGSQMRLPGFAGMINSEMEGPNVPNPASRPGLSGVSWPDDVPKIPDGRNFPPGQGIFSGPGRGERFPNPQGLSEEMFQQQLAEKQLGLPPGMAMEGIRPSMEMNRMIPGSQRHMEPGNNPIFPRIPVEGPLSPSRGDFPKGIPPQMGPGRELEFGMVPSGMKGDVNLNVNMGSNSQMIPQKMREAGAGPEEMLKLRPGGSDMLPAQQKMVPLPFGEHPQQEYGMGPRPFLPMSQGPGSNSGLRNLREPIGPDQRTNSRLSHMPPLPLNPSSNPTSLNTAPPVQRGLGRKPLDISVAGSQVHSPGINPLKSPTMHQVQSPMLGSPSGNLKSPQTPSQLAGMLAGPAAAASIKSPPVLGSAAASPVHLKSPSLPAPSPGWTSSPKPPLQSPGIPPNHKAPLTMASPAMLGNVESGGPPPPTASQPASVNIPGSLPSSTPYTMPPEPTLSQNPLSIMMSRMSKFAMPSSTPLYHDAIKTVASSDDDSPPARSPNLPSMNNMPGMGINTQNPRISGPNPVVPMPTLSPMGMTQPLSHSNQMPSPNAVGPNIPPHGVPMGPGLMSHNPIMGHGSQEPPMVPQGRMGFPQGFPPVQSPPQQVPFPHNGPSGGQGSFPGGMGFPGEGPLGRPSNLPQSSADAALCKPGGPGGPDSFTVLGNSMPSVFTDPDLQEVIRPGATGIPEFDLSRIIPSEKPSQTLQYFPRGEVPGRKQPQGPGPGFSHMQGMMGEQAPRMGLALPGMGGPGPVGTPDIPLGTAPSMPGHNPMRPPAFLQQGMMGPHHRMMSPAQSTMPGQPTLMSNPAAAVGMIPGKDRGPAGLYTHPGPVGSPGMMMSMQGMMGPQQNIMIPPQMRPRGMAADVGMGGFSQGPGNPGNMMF

MCF-10A = assay: Cytotoxicity in human MCF10A cells assessed as reduction in cell viability incubated for 72 hrs by MTS assay; type: cell-based
A549 = assay: Cytotoxicity in human A549 cells assessed as reduction in cell viability incubated for 72 hrs by MTS assay; type: functional, cell-based; details: A549, 72 h
[3] = biological target: beta-catenin-B-cell lymphoma 9 protein complex (Homo sapiens, UniProt P35222, D145A/E155A); assay: Inhibition of inhibited beta-catenin D145A/E155A mutant (unknown origin) expressed in Escherichia coli BL21 DE3 /human BCL9 (350 to 375 residues) protein-protein interactions by Alpha-screen assay
SW480 [4] = assay: Inhibition of anchorage-independent growth in human SW480 cells incubated fro 18 days by crystal violet staining based assay; type: functional, cell-based
[5] = biological target: beta-catenin-B-cell lymphoma 9 protein complex (Homo sapiens, UniProt P35222, D145A); assay: Inhibition of inhibited beta-catenin D145A mutant (unknown origin) expressed in Escherichia coli BL21 DE3 /human BCL9 (350 to 375 residues) protein-protein interactions by Alpha-screen assay

Row | Ratio Ki (Homo sapiens) | pKi [2] | SMILES | pIC50 (SW480 [1]) | pIC50 (HCT-116) | pIC50 (MDA-MB-231) | further results
1 | 16 |  | O=C(Nc1ccc(OC2CNC2)c(-c2ccc(F)cc2)c1)c1ccc(OC2CNC2)c(-c2ccc(F)c(F)c2)c1 |  |  |  | 
2 |  | 4.94 | NCCOc1ccc(NC(=O)c2ccc(OCCN)c(-c3ccc(F)cc3)c2)cc1-c1ccc(F)cc1 |  |  |  | 
3 | 35 | 5.18 | O=C(Nc1ccc(O[C@H]2CCNC2)c(-c2ccc(F)cc2)c1)c1ccc(O[C@H]2CCNC2)c(-c2ccc(F)cc2)c1 | 5.01 | 5.08 | 5.08 to 5.15 | pIC50 (MCF-10A): 4.70; pIC50 (A549): 4.73
4 | 345 |  | O=C(NCCCC(=O)N1CCNCC1)c1ccc(-c2cc(C(=O)Nc3ccc(O[C@H]4CCNC4)c(-c4ccc(F)cc4)c3)ccc2O[C@H]2CCNC2)cc1 |  |  |  | 

The remaining lines, values behind:

Row | SMILES | Ratio Ki (Homo sapiens) | pKi [2] | pIC50 (SW480 [1]) | pIC50 (HCT-116) | pIC50 (MDA-MB-231) | further results
5 | CC(C)c1cc2c(c(O)c1O)[C@@]1(C(=O)O)CCCC(C)(C)[C@@H]1CC2 [CARNOSIC ACID] | 73 |  | 4.98 | 5.06 |  | pIC50 (HT-29): 4.69
6 | O=C(Nc1ccc(O[C@H]2CCNC2)c(-c2ccc(F)cc2)c1)c1ccc(O[C@H]2CCNC2)c(-c2ccc3ccccc3c2)c1 |  |  |  |  | 3.66 | 
7 | NCCOc1ccc(NC(=O)c2ccc(OCCN)c(-c3ccc(F)c(F)c3)c2)cc1-c1ccc(F)cc1 | 38 |  |  |  |  | 
8 | Cc1cc(C(=O)Nc2ccc(O[C@H]3CCNC3)c(-c3ccc(F)cc3)c2)ccc1O[C@H]1CCNC1 |  |  |  |  | 5.04 | 
9 | O=C(Nc1ccc(O[C@H]2CCNC2)c(-c2ccc(F)c(F)c2)c1)c1ccc(O[C@H]2CCNC2)c(-c2ccc(F)c(F)c2)c1 | 30 | 5.06 |  |  |  | 
10 | O=C(Nc1ccc(O[C@H]2CCNC2)c(-c2ccc(F)cc2)c1)c1ccc(O[C@H]2CCNC2)c(-c2ccc(F)c(F)c2)c1 |  |  | 5.46 | 5.51 | 5.61 to 5.64 | pIC50 (MCF-10A): 5.04; pKi [3]: 4.01; inhibition (SW480 [4]): Dose-dependent effect; pIC50 (A549): 5.06; inhibition (SW480 [1]): Dose-dependent effect; pKi [5]: 4.87; inhibition (MDA-MB-231): Dose-dependent effect; inhibition (HCT-116): Dose-dependent effect; inhibition (HT-29): Dose-dependent effect; pIC50 (HT-29): 5.53
